Laboratory results: paper PMC6142817, “New Urea Derivatives Are Effective Anti-senescence Compounds Acting Most Likely via a Cytokinin-Independent Mechanism” (Frontiers in Plant Science, 2018)
Where two headings read alike, the source gives them in different places.

Columns and labels:
[1] = test system: Amaranthus caudatus cotyledon-hypocotyl explants; assay: Amaranthus bioassay (betacyanin synthesis); assay type: cell-based, Amaranthus caudatus var. atropurpurea; settings: for EC50: Amaranthus caudatus
Experimental: (§1) Tobacco callus, Amaranthus and Wheat leaf senescence assay (WLSA) were performed as described by Holub et al. ([1998]) including the number of repetitions in each assay. An exception to the published protocols was that the tobacco callus assay was performed in 6-well microtiter plates (with each well containing 3 ml of Murashige Skoog medium into which 0.1 g of callus was added). Each compound was tested at least twice in each assay and in a wider concentration range to obtain concentration-dependent activity curves. IC50 means compound concentration at which chlorophyll degradation is inhibited by 50% and EC50 means half the maximal effective concentration.
(§2) Amaranthus assay evaluates the induction of betacyanin synthesis in Amaranthus (Amaranthus caudatus var. atropurpurea) cotyledons, which is induced by cytokinins (Bamberger and Mayer, [1960]). The WLSA evaluates the ability of compounds to retard chlorophyll degradation in excised wheat leaves that are kept in the dark. The wheat leaf segments (Triticum aestivum cv. Hereward) were used in all other experiments requiring wheat. Arabidopsis (Arabidopsis thaliana) leaf senescence assay was performed with detached leaves from 30-day-old plants, which were grown in soil in phytotron under standard conditions (Rivero et al., [2014]). Four leaves of a combined weight of 60 mg were placed in a six-well plate and stored in the dark for 12 days at 22°C. The leaves (except the fresh control leaves) floated on water solutions of tested compounds. Fresh control leaves were leaves detached from a plant and immediately used for chlorophyll determination. The duration of the senescence assay of Arabidopsis leaves was prolonged to highlight the difference in chlorophyll content between a negative control and treatments. Arabidopsis leaves were losing chlorophyll more slowly than wheat leaves. Chlorophyll extraction and spectrophotometric determination of its content was done according to Holub et al. ([1998]).

[2] = test system: excised wheat leaves (chlorophyll degradation in the dark); assay: Wheat leaf senescence assay (WLSA); assay type: cell-based, Triticum aestivum cv. Hereward
Experimental: as §1, §2

[3] = test system: cytokinin-dependent tobacco callus; assay: Tobacco callus bioassay; assay type: cell-based; settings: for EC50: Nicotiana tabacum
Experimental: as §1

[4] = test system: ARR5:GUS reporter gene; assay: Arabidopsis ARR5:GUS reporter gene assay; assay type: in vivo, Arabidopsis thaliana; settings: for ARR5:GUS activity, % of BA activity: 1 μM BA = 100%; for ARR5:GUS activation (in words): in vivo; for EC50: Arabidopsis thaliana, read-out: ARR5:GUS activation EC50
Experimental: Transgenic Arabidopsis plants (Arabidopsis thaliana (L.) Heynh. accession Wassilewskija) harboring the GUS reporter gene (gene for β-glucuronidase) fused to 1.6 kb of the ARR5 (PARR5−GUS) gene promoter (D'Agostino et al., [2000]) were kindly provided by professor Thomas Schmülling. The assay was performed according to Romanov et al. ([2002]). β-Glucuronidase (GUS) activity was quantitatively determined by measuring fluorescence of 4-methylumbelliferyl (MU) on a Synergy H4 hybrid reader (Biotek, Winooski, VT) with excitation and emission wavelengths of 365 and 445 nm, respectively. GUS specific activity was determined as nmol MU × mg protein^−1 × h^−1. This was calculated by dividing the relative fluorescence units (obtained per hour) by protein content of the same sample. Protein extraction was done as described by Romanov et al. ([2002]) but its content was determined using a bicinchoninic acid reagent (Smith et al., [1985]). Finally we expressed the GUS activity in samples as a relative percentage, the activity of 1 μM BA being set as 100% activation. The concentration-dependent activity curves and EC50 values (for TDZ, tZ, BA, TD-iP, and TD-tZ) were constructed using Scion image program.

[5] = target: T1, AHK3 (Arabidopsis thaliana, UniProt Q9C5U1); assay: Cytokinin receptor activation assay in E. coli (AHK3); assay type: cell-based
T1 construct: expressed in transfected cells; host or cells: Escherichia coli strain KMI001, plasmid pSTV28-AHK3
T1 sequence (Q9C5U1 1-1036): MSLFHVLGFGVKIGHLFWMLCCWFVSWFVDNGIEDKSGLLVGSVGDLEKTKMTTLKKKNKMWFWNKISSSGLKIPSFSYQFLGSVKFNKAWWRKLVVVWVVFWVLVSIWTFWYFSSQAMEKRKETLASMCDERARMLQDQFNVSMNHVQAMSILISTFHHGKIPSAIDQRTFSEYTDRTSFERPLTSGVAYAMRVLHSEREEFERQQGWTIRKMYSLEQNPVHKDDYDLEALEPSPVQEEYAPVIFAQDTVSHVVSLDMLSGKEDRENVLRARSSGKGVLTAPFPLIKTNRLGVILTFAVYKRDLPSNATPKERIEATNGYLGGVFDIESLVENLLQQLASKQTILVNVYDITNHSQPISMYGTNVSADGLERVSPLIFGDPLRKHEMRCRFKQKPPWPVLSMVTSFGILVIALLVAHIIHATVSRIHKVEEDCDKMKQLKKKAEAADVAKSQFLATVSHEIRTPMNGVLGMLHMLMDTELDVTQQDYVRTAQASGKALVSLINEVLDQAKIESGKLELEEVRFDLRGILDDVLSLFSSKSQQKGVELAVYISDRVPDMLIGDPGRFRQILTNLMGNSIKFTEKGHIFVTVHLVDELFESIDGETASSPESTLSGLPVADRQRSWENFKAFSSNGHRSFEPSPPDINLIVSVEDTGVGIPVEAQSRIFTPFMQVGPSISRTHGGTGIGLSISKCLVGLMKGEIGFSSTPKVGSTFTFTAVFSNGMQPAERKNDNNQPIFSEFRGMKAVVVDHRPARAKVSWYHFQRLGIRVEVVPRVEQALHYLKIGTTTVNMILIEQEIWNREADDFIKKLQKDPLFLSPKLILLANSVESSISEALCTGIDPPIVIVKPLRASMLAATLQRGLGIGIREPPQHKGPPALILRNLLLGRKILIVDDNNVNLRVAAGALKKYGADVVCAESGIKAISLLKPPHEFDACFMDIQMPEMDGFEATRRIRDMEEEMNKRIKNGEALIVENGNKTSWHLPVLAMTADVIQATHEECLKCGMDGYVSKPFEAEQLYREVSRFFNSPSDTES
From the text: (§3) The activity of this enzyme is finally measured in the assay and corresponds to the ability of the tested compound to activate this cytokinin receptor. Both assays were done at least twice and the presented graphs are the most representative examples.

[6] = target: T2, CRE1/AHK4 (Arabidopsis thaliana, UniProt Q9C5U0); settings: read-out: CRE1/AHK4 receptor activation EC50 (previous study); ref Nisler et al., [2010]; cited from earlier work
[7] = target: T2, CRE1/AHK4; assay: Cytokinin receptor activation assay in E. coli (CRE1/AHK4); assay type: cell-based; parameters: expressed in transfected cells; host or cells: Escherichia coli strain KMI001, plasmid pIN-IIIAHK4
From the text: as §3

[8] = betacyanin synthesis, N.A. = not active, read-out: Amaranthus bioassay (EC50)
[9] = Triticum aestivum, 120 h, detached wheat leaves in the dark, 5 days, concentration at which chlorophyll degradation is inhibited by 50%, read-out: Senescence bioassay (IC50)
[10] = half the maximal effective concentration, N.A. = not active, read-out: Tobacco callus bioassay (EC50)
[11] = betacyanin synthesis, N.A. = not active
[12] = half the maximal effective concentration, N.A. = not active
[13] = detached wheat leaves in the dark, 5 days, concentration at which chlorophyll degradation is inhibited by 50%, read-out: Senescence bioassay (IC50)
[14] = read-out: Amaranthus bioassay (EC50, μM)
[15] = Triticum aestivum, 120 h, read-out: Senescence bioassay (IC50, μM)
[16] = read-out: Tobacco callus bioassay (EC50, μM)

T2 sequence (Q9C5U0 whole entry): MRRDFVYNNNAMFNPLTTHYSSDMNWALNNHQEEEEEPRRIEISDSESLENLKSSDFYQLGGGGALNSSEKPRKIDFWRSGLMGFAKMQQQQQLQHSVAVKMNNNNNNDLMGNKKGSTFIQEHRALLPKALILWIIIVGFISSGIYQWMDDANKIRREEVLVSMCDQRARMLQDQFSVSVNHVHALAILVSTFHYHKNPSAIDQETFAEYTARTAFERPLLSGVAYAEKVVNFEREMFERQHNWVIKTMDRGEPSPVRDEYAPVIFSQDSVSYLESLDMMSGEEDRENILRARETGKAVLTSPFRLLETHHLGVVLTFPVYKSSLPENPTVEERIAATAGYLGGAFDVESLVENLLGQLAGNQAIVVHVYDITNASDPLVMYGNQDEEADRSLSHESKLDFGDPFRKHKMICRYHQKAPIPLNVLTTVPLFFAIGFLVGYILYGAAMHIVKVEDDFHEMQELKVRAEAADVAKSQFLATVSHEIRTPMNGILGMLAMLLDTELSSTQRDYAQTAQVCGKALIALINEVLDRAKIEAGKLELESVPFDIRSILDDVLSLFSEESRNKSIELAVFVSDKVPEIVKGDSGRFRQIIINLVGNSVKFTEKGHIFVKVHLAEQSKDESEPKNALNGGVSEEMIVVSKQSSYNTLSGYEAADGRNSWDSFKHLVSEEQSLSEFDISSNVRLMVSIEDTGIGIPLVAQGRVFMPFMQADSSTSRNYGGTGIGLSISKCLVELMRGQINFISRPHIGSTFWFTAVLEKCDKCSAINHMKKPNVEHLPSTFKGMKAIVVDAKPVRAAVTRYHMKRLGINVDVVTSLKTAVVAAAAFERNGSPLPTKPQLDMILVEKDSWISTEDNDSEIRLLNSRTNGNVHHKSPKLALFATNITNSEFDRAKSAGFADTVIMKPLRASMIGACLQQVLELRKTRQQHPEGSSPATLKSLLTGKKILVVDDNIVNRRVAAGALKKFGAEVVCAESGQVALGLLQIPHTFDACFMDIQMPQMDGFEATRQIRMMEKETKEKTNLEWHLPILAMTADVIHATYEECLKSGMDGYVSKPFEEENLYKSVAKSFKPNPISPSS

SMILES: COCCCNC(=O)Nc1cnns1 [Compound 4]
- EC50 [1, 8]: 16.7 µM
- IC50 [2, 9]: 19 µM
- EC50 [3, 10]: 2.2 µM

SMILES: CC(O)CNC(=O)Nc1cnns1 (stereo not shown) [Compound 5]
- Amaranthus bioassay (EC50, μM) [1, 11]: inactive
- ARR5:GUS activity, % of BA activity ([4]; compound at 10 μM): 55–65%
- EC50 [3, 10]: 7.1 µM

SMILES: COCCN(CCOC)C(=O)Nc1cnns1 [Compound 7]
- Amaranthus bioassay (EC50, μM) [1, 11]: inactive
- ARR5:GUS activation (in words) [4]: completely inactive
- IC50 [2, 9]: 62 µM
- Tobacco callus bioassay (EC50, μM) [3, 12]: completely inactive

SMILES: COC(=O)CNC(=O)Nc1cnns1 [Compound 9]
- EC50 [1, 8]: > 100 µM
- IC50 [2, 9]: > 100 µM
- EC50 [3, 10]: 70 µM

SMILES: CC(CO)CCNC(=O)Nc1cnns1 (stereo not shown) [TD-DHZ, N-(4-hydroxy-3-methyl-butyl)-N′-1,2,3-thiadiazol-5-yl-urea]
- EC50 [1, 8]: 43 µM
- IC50 [2, 9]: 56 µM
- times less active than DHZ in tobacco callus assay [3]: 10 times
- EC50 [3, 10]: 0.82 µM

SMILES: CN(C)CCNC(=O)Nc1cnns1 [Compound 15]
- Amaranthus bioassay (EC50, μM) [1, 11]: inactive
- ARR5:GUS activation (in words) [4]: completely inactive
- Tobacco callus bioassay (EC50, μM) [3, 12]: completely inactive

SMILES: C=CCNC(=O)Nc1cnns1 [Compound 13]
- EC50 [1, 8]: 14.2 µM
- ARR5:GUS activity, % of BA activity ([4]; compound at 10 μM): 55–65%
- IC50 [2, 9]: < 10 µM
- IC50 [2, 13]: 7.1 µM
- EC50 [3, 10]: 1.6 µM

SMILES: O=C(NCCCO)Nc1cnns1 [Compound 2]
- EC50 [1, 8]: 75.5 µM
- IC50 [2, 9]: < 10 µM
- IC50 [2, 13]: 8 µM
- EC50 [3, 10]: 7 µM

SMILES: O=C(NCCCl)Nc1cnns1 [Compound 14]
- EC50 [1, 14]: 10.8 µM
- ARR5:GUS activity, % of BA activity ([4]; compound at 1 μM): 65%
- EC50 [5]: 15 µM
- IC50 [2, 15]: 14 µM
- EC50 [3, 16]: 0.87 µM
- Tobacco callus bioassay (EC50, μM) [3, 12]: sub-micromolar range

SMILES: C/C(=C\CNc1ncnc2[nH]cnc12)CO [tZ, trans-zeatin, reference compound]
- EC50 [1, 14]: 0.9 µM
- EC50 [4]: 0.009 µM
- EC50 [6]: 0.2 µM
- EC50 [5]: 0.066 µM
- IC50 [2, 15]: 30 µM
- EC50 [7]: 0.35 µM
- EC50 [3, 16]: 0.012 µM

SMILES: C/C(=C\CNC(=O)Nc1cnns1)CO [TD-tZ, N-[(E)-4-hydroxy-3-methyl-but-2-enyl]-N′-1,2,3-thiadiazol-5-yl-urea]
- EC50 [1, 8]: 1.5 µM
- EC50 ([4]; transgenic Arabidopsis plants): 0.52 µM
- EC50 ([5]; E. coli bacterial receptor assay, read-out: AHK3 receptor activation EC50): 0.19 µM
- IC50 [2, 9]: 13 µM
- EC50 ([7]; E. coli bacterial receptor assay, read-out: CRE1/AHK4 receptor activation EC50): 32 µM
- inhibition of callus growth at the highest concentration tested ([3]; 100 μM): did not inhibit the growth of callus
- EC50 [3, 10]: 0.01 µM
